Data reported in publication PMC9154192 (PLoS Biology, 2022).
Converted amounts (≈) assume the structure as drawn. “And” between values parts separate entries of the source, which are not always exact repeats. Equal entries are not always repeated. Where two headings read alike, the source gives them in different places.

Key:
[1] = format: cell-based; details: positive control
[2] = test system: M. tuberculosis H37Rv; assay: microbe, parasite or virus in culture; format: cell-based, Mycobacterium tuberculosis; details: for MIC: Mycobacterium tuberculosis, H37RV, read-out: MIC; for SI (CC50/MIC): ratio of CC50 for L929 fibroblasts to MIC for strain H37Rv
[3] = test system: M. tuberculosis H37Ra; assay: microbe, parasite or virus in culture; format: cell-based, Mycobacterium tuberculosis; details: Mycobacterium tuberculosis, H37RA
[4] = in vitro; format: cell-based, murine; details: mouse
Description: A549 human pulmonary epithelial cells (KCLB 10185), human embryonic kidney (HEK) 293 cells (KCLB 21573), human THP-1 leukemia cells (KCLB 40202), human neuroblastoma SH-SY5Y cells (KCLB 22266), Murine Raw 264.7 macrophages (KCLB 40071), and L929 murine fibroblasts (KCLB 10001) were purchased from the KCLB (Seoul, Korea). Cytotoxicity testing was performed using the MTT assay and the WST-1 cell viability assay as previously described.

[5] = test system: clinically isolated MDR, XDR, and TDR M. tuberculosis strains; assay: microbe, parasite or virus in culture; format: cell-based; details: Mycobacterium tuberculosis
[6] = test system: M. abscessus; assay: microbe, parasite or virus in culture; format: cell-based, Mycobacterium abscessus; details: Mycobacteroides abscessus
[7] = test system: M. arupense; assay: microbe, parasite or virus in culture; format: cell-based, Mycobacterium arupense; details: Mycolicibacter arupensis
[8] = test system: M. aubagnense; assay: microbe, parasite or virus in culture; format: cell-based, Mycobacterium aubagnense; details: Mycolicibacterium aubagnense
[9] = test system: M. avium; assay: microbe, parasite or virus in culture; format: cell-based; details: Mycobacterium avium
[10] = test system: M. bolletii; assay: microbe, parasite or virus in culture; format: cell-based, Mycobacterium bolletii; details: Mycobacteroides abscessus
[11] = test system: M. bovis; assay: microbe, parasite or virus in culture; format: cell-based; details: Mycobacterium tuberculosis variant bovis
[12] = test system: M. chitae; assay: microbe, parasite or virus in culture; format: cell-based, Mycobacterium chitae; details: Mycolicibacterium chitae
[13] = test system: M. colombiense; assay: microbe, parasite or virus in culture; format: cell-based; details: Mycobacterium colombiense
[14] = test system: M. conceptionense; assay: microbe, parasite or virus in culture; format: cell-based, Mycobacterium conceptionense; details: Mycolicibacterium senegalense
[15] = test system: M. fortuitum; assay: microbe, parasite or virus in culture; format: cell-based, Mycobacterium fortuitum; details: Mycolicibacterium fortuitum
[16] = test system: M. gilvum; assay: microbe, parasite or virus in culture; format: cell-based, Mycobacterium gilvum; details: Mycolicibacterium gilvum
[17] = test system: M. goodie; assay: microbe, parasite or virus in culture; format: cell-based; details: Mycobacterium
[18] = test system: M. gordonae; assay: microbe, parasite or virus in culture; format: cell-based; details: Mycobacterium gordonae
[19] = test system: M. heraklionease; assay: microbe, parasite or virus in culture; format: cell-based; details: Mycobacterium
[20] = test system: M. intracellulare; assay: microbe, parasite or virus in culture; format: cell-based; details: Mycobacterium intracellulare
[21] = test system: M. kansasii; assay: microbe, parasite or virus in culture; format: cell-based; details: Mycobacterium kansasii
[22] = test system: M. kyorinense; assay: microbe, parasite or virus in culture; format: cell-based; details: Mycobacterium kyorinense
[23] = test system: M. marinum; assay: microbe, parasite or virus in culture; format: cell-based; details: Mycobacterium marinum
[24] = test system: M. marseiliense; assay: microbe, parasite or virus in culture; format: cell-based; details: Mycobacterium
[25] = test system: M. massiliense; assay: microbe, parasite or virus in culture; format: cell-based, Mycobacterium massiliense; details: Mycobacteroides abscessus
[26] = test system: M. neoaurum; assay: microbe, parasite or virus in culture; format: cell-based, Mycobacterium neoaurum; details: Mycolicibacterium neoaurum
[27] = test system: M. peregrinum; assay: microbe, parasite or virus in culture; format: cell-based, Mycobacterium peregrinum; details: Mycolicibacterium peregrinum
[28] = test system: M. phlei; assay: microbe, parasite or virus in culture; format: cell-based, Mycobacterium phlei; details: Mycolicibacterium phlei
[29] = test system: M. phocaicum; assay: microbe, parasite or virus in culture; format: cell-based, Mycobacterium phocaicum; details: Mycolicibacterium phocaicum
[30] = test system: M. smegmatis; assay: microbe, parasite or virus in culture; format: cell-based, Mycobacterium smegmatis; details: Mycolicibacterium smegmatis
[31] = test system: M. szulgai; assay: microbe, parasite or virus in culture; format: cell-based; details: Mycobacterium szulgai
[32] = test system: M. xenopi; assay: microbe, parasite or virus in culture; format: cell-based; details: Mycobacterium xenopi
[33] = test system: intestinal microbiome; assay: Gut microbiome, 16s rRNA gene-based metagenomics analysis of feces; format: in vivo, BALB/c mice; details: 30 mg/kg oral once a day for 7 days, BALB/c mice, feces
Description: Six-week-old BALB/c female mice were used for this study (6 mice for each group). Each drug was administered orally at 30 mg/kg once daily for 7 days. Stool was collected, and 16 rRNA gene-based metagenomics analysis was performed. Corn oil was used as the vehicle. The drug-free group received corn oil only. This animal experiment was conducted with the approval of the IACUC of the Soonchunhyang University (approval number: SCH21-0011). Microbiome analysis of collected feces was carried out as previously described with some modifications. Total DNA was extracted from the stool using the QIAamp DNA stool mini kit (Qiagen, Germany) after mechanical disruption using lysing matrix B tubes (MP Biomedicals, USA). V4 region of 16S RNA gene was amplified from extracted DNA with the following primers: forward primer ([…]) and reverse primer ([…]). PCR was performed using the Kappa HiFi hot start kit (KAPA Biosystems, USA) for 16s gene amplification and library preparation. A dsDNA HS assay kit and Qubit 4 fluorimeter (Invitrogen, USA) were used for DNA quantification. After each step, quality was checked using Agilent High Sensitivity DNA Kit and Agilent Bioanalyzer 2100 (Agilent Technologies, USA). Clean-up was performed using AMPure XP beads (Beckman Coulter, UK). The metagenomic library was prepared using a Nextera XT DNA Library Prep Kit (Illumina, USA) and loaded into an iSeq-100 reagent cartridge (Illumina, USA) together with a PhiX Control library (Illumina, USA). A 300-bp paired-end sequencing was performed on an iSeq-100 platform (Illumina, USA). Sequencing data were analyzed using the EzBioCloud server (Chunlab, Korea).

[34] = TA98, 1.0 μg/plate, presence of S9 mix
[35] = TA100, 2.0 μg/plate, presence of S9 mix
[36] = TA1535, 3.0 μg/plate, presence of S9 mix
[37] = TA1537, 3.0 μg/plate, presence of S9 mix
[38] = WP2uvrA (pKM101), 2.0 μg/plate, presence of S9 mix
[39] = TA98, 5.0 μg/plate, absence of S9 mix
[40] = TA1537, 80.0 μg/plate, absence of S9 mix
[41] = TA100, 1.5 μg/plate, absence of S9 mix
[42] = TA1535, 1.5 μg/plate, absence of S9 mix

## Nc1ccc2cc3ccccc3cc2c1 [2-AA]
[1]; [34]
  Individual revertant colony counts: 402 colonies per plate and 414 colonies per plate
  Mean revertant colonies: 408 colonies per plate
[1]; [35]
  Individual revertant colony counts: 555 colonies per plate and 578 colonies per plate
  Mean revertant colonies: 567 colonies per plate
[1]; [36]
  Individual revertant colony counts: 96 colonies per plate and 103 colonies per plate
  Mean revertant colonies: 100 colonies per plate
[1]; [37]
  Individual revertant colony counts: 193 colonies per plate and 184 colonies per plate
  Mean revertant colonies: 189 colonies per plate
[1]; [38]
  Individual revertant colony counts: 409 colonies per plate and 430 colonies per plate
  Mean revertant colonies: 420 colonies per plate

## O=[N+]([O-])c1ccc2c(c1)Cc1ccccc1-2 [2-NF]
[1]; [39]
  Individual revertant colony counts: 705 colonies per plate and 649 colonies per plate
  Mean revertant colonies: 677 colonies per plate

## Nc1c2ccccc2nc2ccccc12 [9-AA]
[1]; [40]
  Individual revertant colony counts: 539 colonies per plate and 571 colonies per plate
  Mean revertant colonies: 555 colonies per plate

## COC(=O)c1cc2ccc(O)cc2c2cc(OC)c(OC)cc12 [DPGA4]
[2]
  MIC: > 100 mg/L
  SI (CC50/MIC): <0.3
[3]
  MIC: > 100 mg/L
[4]; L929, MTT assay (Table S1)
  CC50: 34.9 mg/L (≈ 112 µM)
[4]; RAW, MTT assay (Table S1)
  CC50: 37.5 mg/L (≈ 120 µM)

## COC(=O)c1cc2ccc(OCC(C)C)cc2c2cc(OC)c(OC)cc12 [DPGA5]
[2]
  MIC: > 100 mg/L
  SI (CC50/MIC): <0.4
[3]
  MIC: > 100 mg/L
[4]; L929, MTT assay (Table S1)
  CC50: 40.3 mg/L (≈ 109 µM)
[4]; RAW, MTT assay (Table S1)
  CC50: > 100 mg/L

## COC(=O)c1cc2ccc(OC3CCCCC3)cc2c2cc(OC)c(OC)cc12 [DPGA6]
[2]
  MIC: > 100 mg/L
[3]
  MIC: > 100 mg/L
[4]; L929, MTT assay (Table S1)
  CC50: > 100 mg/L
[4]; RAW, MTT assay (Table S1)
  CC50: > 100 mg/L

## CCOc1ccc2cc(C(=O)OC)c3cc(OC)c(OC)cc3c2c1 [DPGA7]
[2]
  MIC: > 100 mg/L
[3]
  MIC: > 100 mg/L
[4]; L929, MTT assay (Table S1)
  CC50: > 100 mg/L
[4]; RAW, MTT assay (Table S1)
  CC50: > 100 mg/L

## CCCCOc1ccc2cc(C(=O)OC)c3cc(OC)c(OC)cc3c2c1 [DPGA10]
[2]
  MIC: > 100 mg/L
  SI (CC50/MIC): <0.2
[3]
  MIC: > 100 mg/L
[4]; L929, MTT assay (Table S1)
  CC50: 21.5 mg/L (≈ 58.4 µM)
[4]; RAW, MTT assay (Table S1)
  CC50: > 100 mg/L

## CCCCOc1ccc2cc(CO)c3cc(OC)c(OC)cc3c2c1 [DPGA11]
[2]
  MIC: > 100 mg/L
  SI (CC50/MIC): <0.7
[3]
  MIC: > 100 mg/L
[4]; L929, MTT assay (Table S1)
  CC50: 73.7 mg/L (≈ 216 µM)
[4]; RAW, MTT assay (Table S1)
  CC50: > 100 mg/L

## CC[C@@H](CO)NCCN[C@@H](CC)CO [EMB, ethambutol]
[2]
  MIC: 1.6 mg/L (≈ 7.83 µM)
[5]; TDR-1
  MIC: 6.3 mg/L (≈ 30.8 µM)
[5]; TDR-2
  MIC: 6.3 mg/L (≈ 30.8 µM)
[5]; TDR-3
  MIC: 6.3 mg/L (≈ 30.8 µM)
[6]
  MIC: 100 mg/L (≈ 489 µM)
[7]
  MIC: 0.4 mg/L (≈ 1.96 µM)
[8]
  MIC: 50 mg/L (≈ 245 µM)
[9]
  MIC: 50 mg/L (≈ 245 µM)
[10]
  MIC: > 100 mg/L
[11]
  MIC: 1.6 mg/L (≈ 7.83 µM)
[12]
  MIC: 0.2 mg/L (≈ 0.979 µM)
[13]
  MIC: 6.3 mg/L (≈ 30.8 µM)
[14]
  MIC: 50 mg/L (≈ 245 µM)
[15]
  MIC: 12.5 mg/L (≈ 61.2 µM)
[16]
  MIC: 12.5 mg/L (≈ 61.2 µM)
[17]
  MIC: 0.8 mg/L (≈ 3.92 µM)
[18]
  MIC: > 100 mg/L
[19]
  MIC: 100 mg/L (≈ 489 µM)
[20]
  MIC: 3.1 mg/L (≈ 15.2 µM)
[21]
  MIC: 1.6 mg/L (≈ 7.83 µM)
[22]
  MIC: 50 mg/L (≈ 245 µM)
[23]
  MIC: 3.1 mg/L (≈ 15.2 µM)
[24]
  MIC: 100 mg/L (≈ 489 µM)
[25]
  MIC: 100 mg/L (≈ 489 µM)
[26]
  MIC: 6.3 mg/L (≈ 30.8 µM)
[27]
  MIC: 3.1 mg/L (≈ 15.2 µM)
[28]
  MIC: 1.6 mg/L (≈ 7.83 µM)
[29]
  MIC: 0.4 mg/L (≈ 1.96 µM)
[30]
  MIC: 0.8 mg/L (≈ 3.92 µM)
[31]
  MIC: 3.1 mg/L (≈ 15.2 µM)
[32]
  MIC: 25 mg/L (≈ 122 µM)

## COC(=O)[C@H]1CCC(=O)N1Cc1cc2ccc(OC)cc2c2cc(OC)c(OC)cc12 [PP1R]
[2]
  MIC: > 100 mg/L
[3]
  MIC: > 100 mg/L

## CCCCOc1ccc2cc(CN3C(=O)CC[C@@H]3C(=O)OC)c3cc(OC)c(OC)cc3c2c1 [PP2R]
[2]
  MIC: > 100 mg/L
[3]
  MIC: > 100 mg/L

## COC(=O)[C@H]1CCC(=O)N1Cc1cc2ccc(OCc3ccccc3)cc2c2cc(OC)c(OC)cc12 [PP3R, Methyl (R)-1-{[3-(Benzyloxy)-6,7-dimethoxy-9-phenanthryl]methyl}-5-oxopyrrolidine-2-carboxylate]
[2]
  MIC: > 100 mg/L
[3]
  MIC: > 100 mg/L

## [N-]=[N+]=[N-].[Na+] [SA]
[1]; [41]
  Individual revertant colony counts: 734 colonies per plate and 732 colonies per plate
  Mean revertant colonies: 733 colonies per plate
[1]; [42]
  Individual revertant colony counts: 588 colonies per plate and 535 colonies per plate
  Mean revertant colonies: 562 colonies per plate

## CN[C@H](CC(C)C)C(=O)N[C@H]1C(=O)N[C@@H](CC(N)=O)C(=O)N[C@H]2C(=O)N[C@H]3C(=O)N[C@H](C(=O)N[C@H](C(=O)O)c4cc(O)cc(O)c4-c4cc3ccc4O)[C@H](O)c3ccc(c(Cl)c3)Oc3cc2cc(c3O[C@@H]2O[C@H](CO)[C@@H](O)[C@H](O)[C@H]2O[C@H]2C[C@](C)(N)[C@H](O)[C@H](C)O2)Oc2ccc(cc2Cl)[C@H]1O [VAN, vancomycin]
[33]
  beta set-significance analysis, pair-wise comparison of gut microbiome: significant
  difference in phylum or class level taxa compared to drug-free group: significant differences
  phylogenetic diversity compared to drug-free control group: significantly decreased
